From patent US20230218657A1, “COMPOSITIONS, THEIR USES IN THERAPY AND METHODS THEREOF” (National University of Singapore, priority 2020, published 2023)
Entries after “also recorded” stand apart in the source; their conditions may differ.

What was measured:
Type in all cases: in vivo
apoE-/- mice [1] = assay: Footpad tissue edema / swelling observed macroscopically in apoE-/- mice
Description: (§1) To evaluate the effect of cyclodextrin on secondary lymphedema, an animal model of lymphatic insufficiency that mimics human pathophysiology of lymphedema was used, e.g adipose tissue remodeling, lipid accumulation, inflammation and fibrosis. This mouse model can be apoE lipoprotein E deficient mice. […] It is believed that this lymphatic insufficiency leads to adipose tissue expansion and then loss and fibrosis as also observed in human secondary lymphedema. To confirm this, female apoE-/- mice were treated with 2 g/kg body of cyclodextrin […] subcutaneously or vehicle alone (saline) subcutaneously every alternative day for a total of 2, 4 or 8 doses. Mice were euthanized, tissue swelling was observed macroscopically and lymphatic transport was examined by following up the transport of FITC dextran from the front footpad to the draining lymph nodes. Skin tissues was also examined histologically for lipid content (Oil red O staining).
FIG. 1 illustrates images of footpads from female wild-type (WT) or apoE-/-mice after receiving subcutaneous injection of cyclodextrin (CD; 2 g/kg body weight) or saline (control, NT) every alternative day for a total of 4 doses and harvested when mice were 17 weeks old on high fat diet. Swelling of the footpad of the mice was observed macroscopically (arrow heads: swelling region).

apoE-/- mice [2] = assay: CD68 immunofluorescence staining of back skin (inflammation, macrophage infiltration); details: 17 weeks old, particularly the 8 doses regime
Protocol: (§2) The formulation was assessed if it can reverses some tissue changes associated with lymphedema including fibrosis and inflammation.
CD68 is a pan-macrophage marker, perilipin was used to identify adipocytes and DAPI stains for the nucleus.

apoE-/- mice [3] = assay: Total cholesterol in front footpad and plasma cholesterol
Description: Cyclodextrin was administrated subcutaneously alternate days.

apoE-/- mice [4] = assay: Oil red O staining of footpad skin for lipid accumulation; details: 2 g/kg subcutaneous, alternate days, 4 doses; female apoE-/- mice, 17 weeks old, high fat diet; vs saline
Description: as §1
FIG. 2 illustrates microscopic images of female WT or apoE-/- mice after receiving subcutaneous injection of cyclodextrin (CD; 2 g/kg body weight) or saline (control, NT) every alternative day for a total of 4 doses and harvested when mice were 17 weeks old on high fat diet. Section of footpad skin were stained for neutral lipid with Oil red O (red staining) to identify lipid accumulation in the tissue.

apoE-/- mice [5] = assay: Masson's Trichrome staining of back skin (fibrosis, collagen deposition); details: 17 weeks old, particularly the 8 doses regime
Protocol: as §2
Collagen was stained in blue, muscle and cytoplasm was stained in red and the nucleus was stained in black.

apoE-/- mice [6] = assay: Lymphatic transport of FITC dextran from footpad to draining lymph node
Description: as §1
FIG. 3 plots the relative fluorescence in the lymph nodes of respective female WT or apoE-/- mice after receiving subcutaneous injection of cyclodextrin (CD; 2 g/kg body weight) or Saline (control, NT) every alternative day for a total of 4 doses. The mice were harvested when the mice were 17 weeks old on high fat diet. Lymphatic drainage was assessed by measuring the transport of fluorescent dextran from the footpad (site of injection) to the draining lymph node.
FIG. 4 plots the relative fluorescence in the lymph nodes of the respective mice under a different dosage regime.

[7] = 8 doses, apoE-/- mice at 42 weeks of age (greater severity)

Substance: cyclodextrin
- tissue edema / footpad swelling (apoE-/- mice [1]; 2 g/kg subcutaneous, alternate days, 4 doses, female apoE-/- mice, 17 weeks old, high fat diet, vs saline): improved significantly tissue edema in the footpad; also recorded: decreased footpad swelling
- tissue swelling (apoE-/- mice [1]; [7]): not able to improve lymphatic function and ameliorate tissue changes such as tissue swelling
- reducing lymphedema (apoE-/- mice [1]; intradermal injection, animal model of lymphedema (summary statement)): effective in reducing lymphedema
- inflammation (infiltration of macrophages in adipose tissue, CD68) in back skin (apoE-/- mice [2]): reduces fibrosis (FIG. 7A) and inflammation; also recorded: the extent of macrophage accumulation and crown-like structures (white boxes) decreases
- plasma cholesterol levels (apoE-/- mice [3]; apoE-/- mice treated with cyclodextrin): does not affect plasma cholesterol levels
- tissue cholesterol (total cholesterol in front footpad) (apoE-/- mice [3]; subcutaneous, alternate days, 4 or 8 doses, apoE-/- mice, 17 weeks old): reduces tissue cholesterol; also recorded: decreased total cholesterol levels in the front foot pad
- lipid accumulation in footpad skin (Oil red O staining) (apoE-/- mice [4]): decreased lipid accumulation; also recorded: decreased accumulation of lipids
- fibrosis (collagen deposition) in back skin (apoE-/- mice [5]): reduces fibrosis
- lymphatic function (apoE-/- mice [6]; 2 g/kg subcutaneous, alternate days, 2 doses, female apoE-/- mice, 17 weeks old): improved lymphatic function but in lesser extent compared to 4 doses; also recorded: sufficient to improve lymphatic function
- lymphatic transport / lymphatic function (apoE-/- mice [6]; 2 g/kg subcutaneous, alternate days, 4 doses, female apoE-/- mice, 17 weeks old): completely restored lymphatic transport; also recorded: restoring completely lymphatic function; also recorded: completely restored it
- lymphatic function (apoE-/- mice [6]; 2 g/kg subcutaneous, alternate days, 8 doses, female apoE-/- mice, 17 weeks old, compared to 4 doses): did not further enhance lymphatic function; also recorded: did not improve further lymphatic function
- lymphatic function (apoE-/- mice [6]; [7]): not able to improve lymphatic function
